EP0726263A2, “Herbicidal (1,3,4)oxadiazoles and thiadiazoles” (American Cyanamid Company, priority 1995, dated 1996)

Tests used:
Assay type in all cases: in vivo
Ipomoea hederacea [1] = assay: Herbicidal activity, preemergence test; conditions: pre; sprayed onto soil, 800 g of active material per hectare; evaluated 3 weeks after treatment
Method: (§1) To evaluate their herbicidal activity, compounds according to the invention are tested using a representative range of plants: TRZAW Triticum aestivum HORVW Hordeum vulgare ZEAMX Zea mays GOSHI Gossypium hirsutum HELAN Helianthus annuus GLYMA Glycine max ALOMY Alopecurus myosuroides SETVI Setaria viridis ECHCG Echinochloa crus-galli GALAP Galium aparine STEME Stellaria media VERPE Veronica persica VIOAR Viola arvensis IPOHE Ipomoea hederacea LAMPU Lamium purpureum PAPRH Papaver rhoeas MATIN Matricaria inodora AMARE Amaranthus retroflexus ABUTH Abutilon theophrasti AMBEL Ambrosia artemisifolia CHEAL Chenopodium album
(§2) The tests fall into two categories, preemergence and postemergence. The preemergence tests involve spraying a liquid formulation of the compound onto the soil in which the seeds have recently been sown. The postemergence tests involve spraying a liquid formulation of the compound onto seedling plants.
(§3) The soil used in the tests is a prepared horticultural loam.
(§4) The formulations used in the tests are prepared from solutions of the test compounds in acetone containing 0.4% by weight of an alkylphenol/ethylene oxide condensate available under the trade mark TRITON X-155. These acetone solutions are diluted with water and the resulting formulations applied at dosage levels corresponding to 800 g of active material per hectare in a volume equivalent to 900 litres per hectare.
(§5) In the preemergence tests untreated sown soil and in the postemergence tests untreated soil bearing seedling plants are used as controls.
(§6) Results of herbicide evaluation are expressed on a rating scale (0-9). The scale is based upon a visual observation of plant stand, vigor, malformation, size, chlorosis, and general plant appearance as compared to a control. Preemergence and postemergence treatments are evaluated at 3 and 2 weeks after treatment, respectively.

Alopecurus myosuroides [2] = assay: Herbicidal activity, preemergence test; conditions: pre; sprayed onto soil, 800 g of active material per hectare; evaluated 3 weeks after treatment
Method: as §1, §2, §3, §4, §5, §6

Ambrosia artemisifolia [3] = assay: Herbicidal activity, preemergence test; conditions: pre; sprayed onto soil, 800 g of active material per hectare; evaluated 3 weeks after treatment
Method: as §1, §2, §3, §4, §5, §6

Lamium purpureum [4] = assay: Herbicidal activity, preemergence test; conditions: pre; sprayed onto soil, 800 g of active material per hectare; evaluated 3 weeks after treatment
Method: as §1, §2, §3, §4, §5, §6

Setaria viridis [5] = assay: Herbicidal activity, preemergence test; conditions: pre; sprayed onto soil, 800 g of active material per hectare; evaluated 3 weeks after treatment
Method: as §1, §2, §3, §4, §5, §6

Chenopodium album [6] = assay: Herbicidal activity, preemergence test; conditions: pre; sprayed onto soil, 800 g of active material per hectare; evaluated 3 weeks after treatment
Method: as §1, §2, §3, §4, §5, §6

Veronica persica [7] = assay: Herbicidal activity, preemergence test; conditions: pre; sprayed onto soil, 800 g of active material per hectare; evaluated 3 weeks after treatment
Method: as §1, §2, §3, §4, §5, §6

Galium aparine [8] = assay: Herbicidal activity, preemergence test; conditions: pre; sprayed onto soil, 800 g of active material per hectare; evaluated 3 weeks after treatment
Method: as §1, §2, §3, §4, §5, §6

Triticum aestivum [9] = assay: Herbicidal activity, preemergence test; conditions: pre; sprayed onto soil, 800 g of active material per hectare; evaluated 3 weeks after treatment
Method: as §1, §2, §3, §4, §5, §6

Glycine max [10] = assay: Herbicidal activity, preemergence test; conditions: pre; sprayed onto soil, 800 g of active material per hectare; evaluated 3 weeks after treatment
Method: as §1, §2, §3, §4, §5, §6

Hordeum vulgare [11] = assay: Herbicidal activity, preemergence test; conditions: pre; sprayed onto soil, 800 g of active material per hectare; evaluated 3 weeks after treatment
Method: as §1, §2, §3, §4, §5, §6

Amaranthus retroflexus [12] = assay: Herbicidal activity, preemergence test; conditions: pre; sprayed onto soil, 800 g of active material per hectare; evaluated 3 weeks after treatment
Method: as §1, §2, §3, §4, §5, §6

Papaver rhoeas [13] = assay: Herbicidal activity, preemergence test; conditions: pre; sprayed onto soil, 800 g of active material per hectare; evaluated 3 weeks after treatment
Method: as §1, §2, §3, §4, §5, §6

Zea mays [14] = assay: Herbicidal activity, preemergence test; conditions: pre; sprayed onto soil, 800 g of active material per hectare; evaluated 3 weeks after treatment
Method: as §1, §2, §3, §4, §5, §6

Abutilon theophrasti [15] = assay: Herbicidal activity, preemergence test; conditions: pre; sprayed onto soil, 800 g of active material per hectare; evaluated 3 weeks after treatment
Method: as §1, §2, §3, §4, §5, §6

Stellaria media [16] = assay: Herbicidal activity, preemergence test; conditions: pre; sprayed onto soil, 800 g of active material per hectare; evaluated 3 weeks after treatment
Method: as §1, §2, §3, §4, §5, §6

Gossypium hirsutum [17] = assay: Herbicidal activity, preemergence test; conditions: pre; sprayed onto soil, 800 g of active material per hectare; evaluated 3 weeks after treatment
Method: as §1, §2, §3, §4, §5, §6

Matricaria inodora [18] = assay: Herbicidal activity, preemergence test; conditions: pre; sprayed onto soil, 800 g of active material per hectare; evaluated 3 weeks after treatment
Method: as §1, §2, §3, §4, §5, §6

Ipomoea hederacea [19] = assay: Herbicidal activity, postemergence test; conditions: post; sprayed onto seedling plants, 800 g of active material per hectare; evaluated 2 weeks after treatment
Method: as §1, §2, §3, §4, §5, §6

Alopecurus myosuroides [20] = assay: Herbicidal activity, postemergence test; conditions: post; sprayed onto seedling plants, 800 g of active material per hectare; evaluated 2 weeks after treatment
Method: as §1, §2, §3, §4, §5, §6

Ambrosia artemisifolia [21] = assay: Herbicidal activity, postemergence test; conditions: post; sprayed onto seedling plants, 800 g of active material per hectare; evaluated 2 weeks after treatment
Method: as §1, §2, §3, §4, §5, §6

Lamium purpureum [22] = assay: Herbicidal activity, postemergence test; conditions: post; sprayed onto seedling plants, 800 g of active material per hectare; evaluated 2 weeks after treatment
Method: as §1, §2, §3, §4, §5, §6

Setaria viridis [23] = assay: Herbicidal activity, postemergence test; conditions: post; sprayed onto seedling plants, 800 g of active material per hectare; evaluated 2 weeks after treatment
Method: as §1, §2, §3, §4, §5, §6

Chenopodium album [24] = assay: Herbicidal activity, postemergence test; conditions: post; sprayed onto seedling plants, 800 g of active material per hectare; evaluated 2 weeks after treatment
Method: as §1, §2, §3, §4, §5, §6

Veronica persica [25] = assay: Herbicidal activity, postemergence test; conditions: post; sprayed onto seedling plants, 800 g of active material per hectare; evaluated 2 weeks after treatment
Method: as §1, §2, §3, §4, §5, §6

Galium aparine [26] = assay: Herbicidal activity, postemergence test; conditions: post; sprayed onto seedling plants, 800 g of active material per hectare; evaluated 2 weeks after treatment
Method: as §1, §2, §3, §4, §5, §6

Triticum aestivum [27] = assay: Herbicidal activity, postemergence test; conditions: post; sprayed onto seedling plants, 800 g of active material per hectare; evaluated 2 weeks after treatment
Method: as §1, §2, §3, §4, §5, §6

Glycine max [28] = assay: Herbicidal activity, postemergence test; conditions: post; sprayed onto seedling plants, 800 g of active material per hectare; evaluated 2 weeks after treatment
Method: as §1, §2, §3, §4, §5, §6

Hordeum vulgare [29] = assay: Herbicidal activity, postemergence test; conditions: post; sprayed onto seedling plants, 800 g of active material per hectare; evaluated 2 weeks after treatment
Method: as §1, §2, §3, §4, §5, §6

Amaranthus retroflexus [30] = assay: Herbicidal activity, postemergence test; conditions: post; sprayed onto seedling plants, 800 g of active material per hectare; evaluated 2 weeks after treatment
Method: as §1, §2, §3, §4, §5, §6

Papaver rhoeas [31] = assay: Herbicidal activity, postemergence test; conditions: post; sprayed onto seedling plants, 800 g of active material per hectare; evaluated 2 weeks after treatment
Method: as §1, §2, §3, §4, §5, §6

Zea mays [32] = assay: Herbicidal activity, postemergence test; conditions: post; sprayed onto seedling plants, 800 g of active material per hectare; evaluated 2 weeks after treatment
Method: as §1, §2, §3, §4, §5, §6

Abutilon theophrasti [33] = assay: Herbicidal activity, postemergence test; conditions: post; sprayed onto seedling plants, 800 g of active material per hectare; evaluated 2 weeks after treatment
Method: as §1, §2, §3, §4, §5, §6

Stellaria media [34] = assay: Herbicidal activity, postemergence test; conditions: post; sprayed onto seedling plants, 800 g of active material per hectare; evaluated 2 weeks after treatment
Method: as §1, §2, §3, §4, §5, §6

Gossypium hirsutum [35] = assay: Herbicidal activity, postemergence test; conditions: post; sprayed onto seedling plants, 800 g of active material per hectare; evaluated 2 weeks after treatment
Method: as §1, §2, §3, §4, §5, §6

Matricaria inodora [36] = assay: Herbicidal activity, postemergence test; conditions: post; sprayed onto seedling plants, 800 g of active material per hectare; evaluated 2 weeks after treatment
Method: as §1, §2, §3, §4, §5, §6

| SMILES | IPOHE control rating (0-9) (Ipomoea hederacea [1]) | ALOMY control rating (0-9) (Alopecurus myosuroides [2]) | AMBEL control rating (0-9) (Ambrosia artemisifolia [3]) | LAMPU control rating (0-9) (Lamium purpureum [4]) | SETVI control rating (0-9) (Setaria viridis [5]) | CHEAL control rating (0-9) (Chenopodium album [6]) | VERPE control rating (0-9) (Veronica persica [7]) | GALAP control rating (0-9) (Galium aparine [8]) | TRZAW control rating (0-9) (Triticum aestivum [9]) | GLXMA control rating (0-9) (Glycine max [10]) | HORVW control rating (0-9) (Hordeum vulgare [11]) | AMARE control rating (0-9) (Amaranthus retroflexus [12]) | PAPRH control rating (0-9) (Papaver rhoeas [13]) | ZEAMX control rating (0-9) (Zea mays [14]) | ABUTH control rating (0-9) (Abutilon theophrasti [15]) | STEME control rating (0-9) (Stellaria media [16]) | GOSHI control rating (0-9) (Gossypium hirsutum [17]) | MATIN control rating (0-9) (Matricaria inodora [18]) | IPOHE control rating (0-9) (Ipomoea hederacea [19]) | ALOMY control rating (0-9) (Alopecurus myosuroides [20]) | also measured |
| --- | --- | --- | --- | --- | --- | --- | --- | --- | --- | --- | --- | --- | --- | --- | --- | --- | --- | --- | --- | --- | --- |
| C[C@H](NC(=O)c1nnc(-c2ccc(F)cc2)o1)c1ccccc1 [Example 7] | 0 (no effect) | 4 (injury) | 0 (no effect) | 9 (complete kill) | 9 (complete kill) | 8 (approaching complete kill) | 9 (complete kill) | 1 (trace effect) | 0 (no effect) | 1 (trace effect) | 0 (no effect) | 9 (complete kill) | 9 (complete kill) | 0 (no effect) | 8 (approaching complete kill) | 9 (complete kill) | 0 (no effect) | 9 (complete kill) | 9 (complete kill) | 5 (definite injury) | AMBEL control rating (0-9) (Ambrosia artemisifolia [21]): 8 (approaching complete kill); LAMPU control rating (0-9) (Lamium purpureum [22]): 9 (complete kill); SETVI control rating (0-9) (Setaria viridis [23]): 9 (complete kill); CHEAL control rating (0-9) (Chenopodium album [24]): 9 (complete kill); VERPE control rating (0-9) (Veronica persica [25]): 9 (complete kill); GALAP control rating (0-9) (Galium aparine [26]): 7 (good herbicidal effect); TRZAW control rating (0-9) (Triticum aestivum [27]): 4 (injury); GLXMA control rating (0-9) (Glycine max [28]): 8 (approaching complete kill); HORVW control rating (0-9) (Hordeum vulgare [29]): 5 (definite injury); AMARE control rating (0-9) (Amaranthus retroflexus [30]): 9 (complete kill); PAPRH control rating (0-9) (Papaver rhoeas [31]): 9 (complete kill); ZEAMX control rating (0-9) (Zea mays [32]): 2 (slight effect); ABUTH control rating (0-9) (Abutilon theophrasti [33]): 9 (complete kill); STEME control rating (0-9) (Stellaria media [34]): 9 (complete kill); GOSHI control rating (0-9) (Gossypium hirsutum [35]): 9 (complete kill); MATIN control rating (0-9) (Matricaria inodora [36]): 9 (complete kill) |
| O=C(NCc1cccs1)c1nnc(-c2ccc(F)cc2)o1 [Example 8] | 0 (no effect) | 0 (no effect) | 3 (moderate effect) | 0 (no effect) | 3 (moderate effect) | 5 (definite injury) | 7 (good herbicidal effect) | 0 (no effect) | 0 (no effect) | 2 (slight effect) | 0 (no effect) | 9 (complete kill) | 9 (complete kill) | 2 (slight effect) | 0 (no effect) | 7 (good herbicidal effect) | 2 (slight effect) | 5 (definite injury) | 0 (no effect) | 0 (no effect) | AMBEL control rating (0-9) (Ambrosia artemisifolia [21]): 3 (moderate effect); LAMPU control rating (0-9) (Lamium purpureum [22]): 0 (no effect); SETVI control rating (0-9) (Setaria viridis [23]): 0 (no effect); CHEAL control rating (0-9) (Chenopodium album [24]): 4 (injury); VERPE control rating (0-9) (Veronica persica [25]): 4 (injury); GALAP control rating (0-9) (Galium aparine [26]): 0 (no effect); TRZAW control rating (0-9) (Triticum aestivum [27]): 0 (no effect); GLXMA control rating (0-9) (Glycine max [28]): 0 (no effect); HORVW control rating (0-9) (Hordeum vulgare [29]): 0 (no effect); AMARE control rating (0-9) (Amaranthus retroflexus [30]): 8 (approaching complete kill); PAPRH control rating (0-9) (Papaver rhoeas [31]): 3 (moderate effect); ZEAMX control rating (0-9) (Zea mays [32]): 0 (no effect); ABUTH control rating (0-9) (Abutilon theophrasti [33]): 3 (moderate effect); STEME control rating (0-9) (Stellaria media [34]): 5 (definite injury); GOSHI control rating (0-9) (Gossypium hirsutum [35]): 0 (no effect); MATIN control rating (0-9) (Matricaria inodora [36]): 2 (slight effect) |
